Results from patent publication US20140162285A1, “Methods of Modulating Vesicular Trafficking” (The General Hospital Corporation, priority 2009, published 2014).
Peptide text beside a SMILES is read from it. * marks the point of attachment. Biotin = O=C1N[C@H]2[C@H](CS[C@H]2CCCCC(=O)*)N1

T1: GST-ARNO(wt) (Homo sapiens, UniProt Q99418)
T1 construct: i) 1-400aa, full length ARNO(wt); made in house; host or cells: E. coli BL21(DE3)
T1 sequence (Q99418 1-400): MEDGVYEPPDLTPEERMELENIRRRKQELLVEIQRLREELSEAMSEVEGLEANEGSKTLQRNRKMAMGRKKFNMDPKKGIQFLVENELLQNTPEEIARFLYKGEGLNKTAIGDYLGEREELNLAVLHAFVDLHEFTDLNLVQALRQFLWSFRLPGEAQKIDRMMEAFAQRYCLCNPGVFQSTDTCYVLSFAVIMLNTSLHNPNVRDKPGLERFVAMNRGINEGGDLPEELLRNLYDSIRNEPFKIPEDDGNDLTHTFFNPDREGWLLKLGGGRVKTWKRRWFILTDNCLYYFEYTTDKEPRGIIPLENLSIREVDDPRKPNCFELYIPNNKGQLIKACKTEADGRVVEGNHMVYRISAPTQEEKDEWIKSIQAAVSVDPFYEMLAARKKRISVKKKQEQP

T2: ARNO's GEF activity with Arf6 (Homo sapiens, UniProt Q99418)
T2 sequence (Q99418 1-400): T1 sequence (Q99418 1-400)

B1: a2N: recombinant N-terminal cytosolic tail, amino acid residues 1-402 of mouse V-ATPase a2-subunit (protein)
chain: MGSLFRSESMCLAQLFLQSGTAYECLSALGEKGLVQFRDLNQNVSSFQRKFVGEVKRCEELERILVYLVQEITRADIPLPEGEASPPAPPLKHVLEMQEQLQKLEVELREVTKNKEKLRKNLLELVEYTHMLRVTKTFLKRNVEFEPTYEEFPALENDSLLDYSCMQRLGAKLGFVSGLIQQGRVEAFERMLWRACKGYTIVTYAELDECLEDPETGEVIKWYVFLISFWGEQIGHKVKKICDCYHCHIYPYPNTAEERREIQEGLNTRIQDLYTVLHKTEDYLRQVLCKAAESVCSRVVQVRKMKAIYHMLNMCSFDVTNKCLIAEVWCPEVDLPGLRRALEEGSRESGATIPSFMNTIPTKETPPTLIRTNKFTEGFQNIVDAYGVGSYREVNPALFTII
modifications: left off: small tags and cut ends
notes: recombinant N-terminal cytosolic tail, amino acid residues 1-402 of mouse V-ATPase a2-subunit

What was measured:
[1] = target: T1, GST-ARNO(wt); assay: a2N-derived peptide pull-down assay with GST-ARNO(wt); format: binding; design: key to interaction with ARNO (asterisk mark in Table 1): The interacting peptides are indicated in bold with an asterisk (*)
Protocol: FIG. 2A is an image of a Western blot showing the results of an a2N-derived peptide pull-down assay. The indicated a2N-derived peptides were immobilized on streptavidin-beads and incubated with purified recombinant GST-ARNO(wt). Interacting complexes were eluted and analyzed by Western blotting using monoclonal anti-GST antibodies.
FIG. 2B is an image of a Western blot showing the results of a pull-down assay with selected a2N-derived interacting peptides incubated with either GST (negative control) or GST-ARNO(wt). The first two lanes show the patterns obtained when either GST-only (lane 1) or GST-ARNO(wt) (lane 2) were loaded onto the gel.
Peptides were synthesized, purified by HPLC and analyzed by mass spectrometry in the MGH Peptide/Protein Core Facility. All a2N-derived peptides were synthesized with a biotin-tag on the N-terminus for immobilization on streptavidin-agarose beads and with an additional C-terminal cysteine residue for immobilization on beads using sulfhydryl-specific crosslinkers. A peptide corresponding to the PB-domain of ARNO was synthesized containing either a non-phosphorylated or a phosphorylated Ser392 residue. Peptide stock solutions were prepared in DMSO at 5 mM concentration and stored at −20° C. […]

[2] = target: T2, ARNO's GEF activity with Arf6; assay: radiolabel GDP/GTP-exchange (GEF) activity assay of ARNO with Arf6; format: biochemical; details: recombinant protein
Protocol: To test the effect of V-ATPase-derived peptides on enzymatic activity of small GTPases, the GDP/GTP exchange activity assay of ARNO with Arf6 was established in the presence of GTPγS and phospholipids vesicles containing various amounts of phosphatidylinositol PIP2 (FIG. 8).
Phospholipid vesicles were prepared by the extrusion method (Macia and Paris Biochemistry, 39: 5893-5901 (2000)). The lipids were dissolved in chloroform. A film of phospholipids was formed by evaporating chloroform and was resuspended in 50 mM Hepes, pH 7.5, and 1 mM dithiothreitol. The suspension was freeze-thawed 3 times and was passed through a 0.1 μm pore size polycarbonate filter.
GDP/GTP-exchange activity of ARNO was measured using time-course radiolabel based assay as previously described (Santy et al., Curr Biol. 9:1173-1176 (1999)). […] After washing filters 3 times with 2 ml of stop buffer, radioactivity was quantified using Perkin-Elmer “Tri-Carb 2900TR” liquid-scintillation counter.
In peptide-inhibition experiments, 500 nM of recombinant ARNO were incubated in the presence of different amounts (0-2000 nM) of FITC-a2N-01-TAT peptide or FITC-TAT peptide as a control. […] The enzymatic activities were followed for 30 min at 37° C. and radioactivity of aliquots were analyzed as described above.

Molecule	interaction of a2N-derived peptide with GST-ARNO(wt) in pull-down ([1]; Western blot anti-GST, GST-only as control)	interaction with ARNO (asterisk mark in Table 1) ([1]; biotin-tagged peptides on streptavidin beads)	modulation of GDP/GTP-exchange activity of ARNO [2]
CSCC[C@H](NC(=O)CCCC[C@@H]1SC[C@@H]2NC(=O)N[C@@H]21)C(=O)NCC(=O)N[C@@H](CO)C(=O)N[C@@H](CC(C)C)C(=O)N[C@@H](Cc1ccccc1)C(=O)N[C@@H](CCCNC(=N)N)C(=O)N[C@@H](CO)C(=O)N[C@@H](CCC(=O)O)C(=O)N[C@@H](CO)C(=O)N[C@@H](CCSC)C(=O)N[C@@H](CS)C(=O)N[C@@H](CC(C)C)C(=O)N[C@@H](C)C(=O)N[C@@H](CCC(N)=O)C(=O)N[C@@H](CC(C)C)C(=O)N[C@@H](Cc1ccccc1)C(=O)N[C@@H](CC(C)C)C(=O)N[C@@H](CS)C(=O)O [a2N-01, Bio-MGSLFRSE SMCLAQLFL-Cys] (Biotin-MGSLFRSESMCLAQLFLC-OH; N-terminus and C-terminus assumed)	specific interaction	Bio-MGSLFRSE SMCLAQLFL-Cys *	
B1			successfully used to modulate
